Measurements as given in ChEMBL document CHEMBL1142261 (Bioorg Med Chem, 2008).
The source made the active and inactive calls. The calls are words filed in the database; no cut-off is given here. Peptide text beside a SMILES is read from it. * marks the point of attachment. Isovaleryl = CC(C)CC(=O)*; Propionyl = CCC(=O)*; Bz = O=C(c1ccccc1)*

Key:
Nociceptin receptor [1] = biological target: T1, Nociceptin receptor (Homo sapiens, UniProt P41146); experiment: Displacement of [3H]nociceptin from human ORL1-Galpha fusion receptor in COS7 cells; format: cell-based, COS-7
T1 sequence (P41146 whole entry, the tested form may be a part): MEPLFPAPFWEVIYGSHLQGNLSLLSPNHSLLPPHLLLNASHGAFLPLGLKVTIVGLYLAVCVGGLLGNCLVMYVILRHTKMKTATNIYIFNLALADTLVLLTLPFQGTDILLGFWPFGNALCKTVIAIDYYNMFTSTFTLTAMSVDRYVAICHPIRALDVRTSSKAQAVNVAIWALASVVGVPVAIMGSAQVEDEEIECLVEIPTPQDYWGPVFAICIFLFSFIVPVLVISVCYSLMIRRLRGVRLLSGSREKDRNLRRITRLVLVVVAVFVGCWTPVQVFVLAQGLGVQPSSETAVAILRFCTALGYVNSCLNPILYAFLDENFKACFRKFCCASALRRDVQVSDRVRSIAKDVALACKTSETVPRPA

Nociceptin receptor [2] = biological target: T1, Nociceptin receptor; experiment: Activity at human ORL1-Galpha fusion receptor in COS7 cells assessed as stimulation of [35S]GTP-gamma-S binding; format: functional, cell-based, COS-7
[3] = biological target: Nociceptin receptor (Mus musculus) (UniProt P35377); experiment: Antagonist activity at ORL1[…] receptor in ICR mouse vas deferens assessed as inhibition of electrically-stimulated muscle contraction; format: functional, tissue-based
Sequence of Nociceptin receptor (Mus musculus) (P35377 whole entry): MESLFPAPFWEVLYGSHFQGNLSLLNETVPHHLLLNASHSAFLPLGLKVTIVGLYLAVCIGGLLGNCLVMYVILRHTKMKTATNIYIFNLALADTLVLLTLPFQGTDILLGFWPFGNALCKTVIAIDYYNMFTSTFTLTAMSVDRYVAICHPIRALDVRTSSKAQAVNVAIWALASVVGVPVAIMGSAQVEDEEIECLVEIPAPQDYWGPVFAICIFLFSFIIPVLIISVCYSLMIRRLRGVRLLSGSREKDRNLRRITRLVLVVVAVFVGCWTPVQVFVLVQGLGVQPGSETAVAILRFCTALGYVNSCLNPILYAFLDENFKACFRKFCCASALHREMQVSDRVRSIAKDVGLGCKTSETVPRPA

[4] = biological target: Nociceptin receptor (Mus musculus) (UniProt P35377); experiment: Antagonist activity at ORL1[…] receptor in ICR mouse vas deferens assessed as inhibition of electrically-stimulated muscle contraction at 10 uM; format: functional, tissue-based; design: scale not given: the % may be the effect or the level left
[5] = biological target: Nociceptin receptor (Mus musculus) (UniProt P35377); experiment: Agonist activity at ORL1[…] receptor in ICR mouse vas deferens assessed as inhibition of electrically-stimulated muscle contraction at 10 uM; format: functional, tissue-based; design: scale not given: the % may be the effect or the level left

Compound | IC50 (Nociceptin receptor [1]) | EC50 (Nociceptin receptor [2]) | further results
CC[C@H](C)[C@H](NC(=O)[C@H](CCCN=C(N)N)NC(=O)[C@H](Cc1ccc(O)cc1)NC(=O)[C@H](Cc1ccc(O)cc1)NC(=O)[C@H](CCCN=C(N)N)NC(=O)C12CC3CC(CC(C3)C1)C2)C(=O)N[C@@H](CCCCN)C(N)=O | 3.42 nM | 19.2 nM | –
CC[C@H](C)[C@H](NC(=O)[C@H](CCCNC(=N)N)NC(=O)[C@H](Cc1ccc(O)cc1)NC(=O)[C@H](Cc1ccc(O)cc1)NC(=O)[C@H](CCCNC(=N)N)NC(=O)c1ccccc1)C(=O)N[C@@H](CCCCN)C(N)=O | 14.7 nM | 18.3 nM | –
CC[C@H](C)[C@H](NC(=O)[C@H](CCCNC(=N)N)NC(=O)[C@H](Cc1ccc(O)cc1)NC(=O)[C@H](Cc1ccc(O)cc1)NC(=O)[C@H](CCCNC(=N)N)NC(=O)C(C)(C)C)C(=O)N[C@@H](CCCCN)C(N)=O | 14.9 nM | 97.9 nM | –
CC[C@H](C)[C@H](NC(=O)[C@H](CCCNC(=N)N)NC(=O)[C@H](Cc1ccc(O)cc1)NC(=O)[C@H](Cc1ccccc1)NC(=O)[C@@H](N)CCCNC(=N)N)C(=O)N[C@@H](CCCCN)C(N)=O | – | – | Activity [3]: inactive
CC[C@H](C)[C@H](NC(=O)[C@H](CCCNC(=N)N)NC(=O)[C@H](Cc1ccc(O)cc1)NC(=O)[C@H](Cc1ccccc1)NC(=O)[C@H](CCCNC(=N)N)NC(=O)CC(C)C)C(=O)N[C@@H](CCCCN)C(N)=O (Isovaleryl-RFYRIK-NH2) | – | – | Activity [3]: Dose-dependent effect
CCCC(C)C(=O)N[C@@H](CCCNC(=N)N)C(=O)N[C@@H](Cc1ccc(O)cc1)C(=O)N[C@@H](Cc1ccc(O)cc1)C(=O)N[C@@H](CCCNC(=N)N)C(=O)N[C@H](C(=O)N[C@@H](CCCCN)C(N)=O)[C@@H](C)CC (stereo partly drawn) | 47.3 nM | 23.8 nM | –
CCCC(=O)N[C@@H](CCCNC(=N)N)C(=O)N[C@@H](Cc1ccc(O)cc1)C(=O)N[C@@H](Cc1ccc(O)cc1)C(=O)N[C@@H](CCCNC(=N)N)C(=O)N[C@H](C(=O)N[C@@H](CCCCN)C(N)=O)[C@@H](C)CC | 1.86 nM | 32.4 nM | –
CCC(=O)N[C@@H](CCCNC(=N)N)C(=O)N[C@@H](Cc1ccccc1)C(=O)N[C@@H](Cc1ccc(O)cc1)C(=O)N[C@@H](CCCNC(=N)N)C(=O)N[C@H](C(=O)N[C@@H](CCCCN)C(N)=O)[C@@H](C)CC (Propionyl-RFYRIK-NH2) | – | – | Activity [4]: 90%
CC[C@H](C)[C@H](NC(=O)[C@H](CCCN=C(N)N)NC(=O)[C@H](Cc1ccc(O)cc1)NC(=O)[C@H](Cc1ccc(O)cc1)NC(=O)[C@H](CCCN=C(N)N)NC(=O)CC(C)(C)C)C(=O)N[C@@H](CCCCN)C(N)=O | 16.9 nM | 46.5 nM | –
CC[C@H](C)[C@H](NC(=O)[C@H](CCCNC(=N)N)NC(=O)[C@H](Cc1ccc(O)cc1)NC(=O)[C@H](Cc1ccc(O)cc1)NC(=O)[C@@H](N)CCCNC(=N)N)C(=O)N[C@@H](CCCCN)C(N)=O | 218 nM | – | –
CC[C@H](C)[C@H](NC(=O)[C@H](CCCN=C(N)N)NC(=O)[C@H](Cc1ccc(O)cc1)NC(=O)[C@H](Cc1ccc(O)cc1)NC(=O)[C@H](CCCN=C(N)N)NC=O)C(=O)N[C@@H](CCCCN)C(N)=O | 0.66 nM | 23.3 nM | –
CC[C@H](C)[C@H](NC(=O)[C@H](CCCNC(=N)N)NC(=O)[C@H](Cc1ccc(O)cc1)NC(=O)[C@H](Cc1ccccc1)NC(=O)[C@H](CCCNC(=N)N)NC(=O)c1ccccc1)C(=O)N[C@@H](CCCCN)C(N)=O (Bz-RFYRIK-NH2) | – | – | Activity [4]: 90%
CC[C@H](C)[C@H](NC(=O)[C@H](CCCN=C(N)N)NC(=O)[C@H](Cc1ccc(O)cc1)NC(=O)[C@H](Cc1ccc(O)cc1)NC(=O)[C@H](CCCN=C(N)N)NC(C)=O)C(=O)N[C@@H](CCCCN)C(N)=O | – | – | Activity [5]: 40%
CC(C)C[C@H](NC(=O)[C@H](CCCCN)NC(=O)[C@H](CCCNC(=N)N)NC(=O)[C@H](C)NC(=O)[C@H](CO)NC(=O)[C@H](CCCCN)NC(=O)[C@H](CCCNC(=N)N)NC(=O)[C@H](C)NC(=O)CNC(=O)[C@@H](NC(=O)[C@H](Cc1ccccc1)NC(=O)CNC(=O)CNC(=O)[C@@H](N)Cc1ccccc1)[C@@H](C)O)C(=O)N[C@@H](C)C(=O)N[C@@H](CC(N)=O)C(=O)N[C@@H](CCC(N)=O)C(=O)O | – | – | ED50 [3]: 19.3 nM
CCC(CC)C(=O)N[C@@H](CCCN=C(N)N)C(=O)N[C@@H](Cc1ccc(O)cc1)C(=O)N[C@@H](Cc1ccc(O)cc1)C(=O)N[C@@H](CCCN=C(N)N)C(=O)N[C@H](C(=O)N[C@@H](CCCCN)C(N)=O)[C@@H](C)CC | 92.6 nM | – | –
CC[C@H](C)[C@H](NC(=O)[C@H](CCCNC(=N)N)NC(=O)[C@H](Cc1ccc(O)cc1)NC(=O)[C@H](Cc1ccc(O)cc1)NC(=O)[C@H](CCCNC(=N)N)NC(=O)CC(C)C)C(=O)N[C@@H](CCCCN)C(N)=O | 7.42 nM | – | –
CCCCCC(=O)N[C@@H](CCCNC(=N)N)C(=O)N[C@@H](Cc1ccc(O)cc1)C(=O)N[C@@H](Cc1ccc(O)cc1)C(=O)N[C@@H](CCCNC(=N)N)C(=O)N[C@H](C(=O)N[C@@H](CCCCN)C(N)=O)[C@@H](C)CC | 21.7 nM | – | –
CC[C@H](C)[C@H](NC(=O)[C@H](CCCNC(=N)N)NC(=O)[C@H](Cc1ccc(O)cc1)NC(=O)[C@H](Cc1ccc(O)cc1)NC(=O)[C@H](CCCNC(=N)N)NC(=O)C(C)C)C(=O)N[C@@H](CCCCN)C(N)=O | 2.81 nM | 44.5 nM | –
CCC(=O)N[C@@H](CCCNC(=N)N)C(=O)N[C@@H](Cc1ccc(O)cc1)C(=O)N[C@@H](Cc1ccc(O)cc1)C(=O)N[C@@H](CCCNC(=N)N)C(=O)N[C@H](C(=O)N[C@@H](CCCCN)C(N)=O)[C@@H](C)CC | 1.7 nM | 27.6 nM | –
CC[C@H](C)[C@H](NC(=O)[C@H](CCCN=C(N)N)NC(=O)[C@H](Cc1ccc(O)cc1)NC(=O)[C@H](Cc1ccc(O)cc1)NC(=O)[C@H](CCCN=C(N)N)NC(=O)C(C)(C)CC)C(=O)N[C@@H](CCCCN)C(N)=O | 45.5 nM | 17.7 nM | –
CCCCC(=O)N[C@@H](CCCN=C(N)N)C(=O)N[C@@H](Cc1ccc(O)cc1)C(=O)N[C@@H](Cc1ccc(O)cc1)C(=O)N[C@@H](CCCN=C(N)N)C(=O)N[C@H](C(=O)N[C@@H](CCCCN)C(N)=O)[C@@H](C)CC | 5.67 nM | – | –
CCC(C)C(=O)N[C@@H](CCCNC(=N)N)C(=O)N[C@@H](Cc1ccc(O)cc1)C(=O)N[C@@H](Cc1ccc(O)cc1)C(=O)N[C@@H](CCCNC(=N)N)C(=O)N[C@H](C(=O)N[C@@H](CCCCN)C(N)=O)[C@@H](C)CC (stereo partly drawn) | 21.3 nM | 52.7 nM | –
